Experimental data as given in US20200253929A1, “TREATMENT OF EPILEPSY” (priority 2017, published 2020).

Experiments:
NMRI mice = assay: Mouse 6-Hz (44 mA) psychomotor seizure model; format: in vivo; details: for mean seizure duration / mice protected against induced seizures: 30 min before electrical stimulation
Source text: Although the zebrafish model has a high degree of genetic, physiological and pharmacological conservation^13, it is more distinct from humans than mammals. Therefore, we were interested to see if the observed antiseizure properties of azaspirofuran A and pseurotin A2 would translate to a rodent model. The mouse 6-Hz (44 mA) psychomotor seizure model was chosen, because it can detect compounds with novel antiseizure mechanisms and with potential against drug-resistant seizures [Barton et al. (2001) Epilepsy Res 47, 217-227; Wilcox et al. (2013) Epilepsia 54 S4, 24-34]. In this model drug-resistant focal impaired awareness seizures [Fisher et al. (2017) Epilepsia 58, 531-542], previously referred to as complex partial or psychomotor seizures [Holcomb and Dean (2011) Psychomotor Seizures, In Encyclopedia of Child Behavior and Development (Goldstein, S., and Naglieri, J. A., Eds.), pp 1191-1192, Springer US, Boston, Mass.], are induced by low frequency, long duration corneal electrical stimulation (6 Hz, 0.2 ms rectangular pulse width, 3 s duration, 44 mA) and are characterized by stun, twitching of the vibrissae, forelimb clonus, and Straub tail. […] Stimulated mice with a seizure duration shorter than 27 seconds were thus considered to be protected. […] Besides, this study provides another example of the translation of results from zebrafish to rodent seizure models.
Experimental procedure was described in Copmans et al. (2018) Neurochem. Int. 112, 124-133. before Buenafe et al. cited above; Orellana-Paucar cited above. In brief, NMRI mice (average weight 28 g, range 23-32 g) were randomly divided into control and treatment groups (n=5-10). 50 μL (injection volume was adjusted to the individual weight) of VHC (PEG200:DMSO:water; 0.25:0.25:0.5) or treatment (an ASD or test compound dissolved in VHC) was i.p. injected in mice and after 30 or 120 (in case of phenytoin, as reported by Barton et al. cited above) min psychomotor seizures were induced by low frequency, long duration corneal electrical stimulation (6 Hz, 0.2 ms rectangular pulse width, 3 s duration, 44 mA) using an ECT Unit 5780 (Ugo Basile, Comerio, Italy). Mice were manually restrained and a drop of ocular anesthetic (0.5% lidocaine) was applied to the corneas before stimulation. Following electrical current stimulation, the mouse was released in a transparent cage for behavioral observation, which was video-recorded. […] In addition, facial and mouth jerking as well as head nodding were observed occasionally. Mice displaying normal exploratory and locomotion behavior within a time period of 26 seconds were considered to be protected against the induced psychomotor seizures. Seizure durations were measured during the experiment by experienced researchers, familiar with the different seizure behaviors. In addition, seizure durations were determined by blinded video analysis to confirm or correct the initial observations. Data are expressed as mean±SD.

SHSY5Y cells = assay: Cell viability MTT assay, SHSY5Y cells; format: cell-based, human; details: 24 h incubation; for IC50: read-out: Cytotoxicity SHSY5Y cells IC50
Description: Protocol was based on literature [Patel and Patel. (2011) J. App. Pharm. Sci 1, 167-171]. Three cell lines were used: a) Hep G2 (HB-8065), a well-differentiated human hepatocellular carcinoma cell line, b) THLE-2, human liver epithelial cells transformed with SV40 large T-antigen and c) SHSYSY, a thrice-cloned sub-line of a human metastatic bone tumor. Cells were seeded at a concentration of 1×10^4 cells/well in 200 μL culture medium and incubated at 37° C. in 5% CO2 using 96-well plates for 24 h. Next, the medium was replaced with medium complemented with test compounds. After another 24 h incubation, the medium was replaced by 100 μL of a MTT (3-(4,5-dimethylthiazol-2-yl)-2,5-diphenyltetrazolium bromide) solution (5 mg/mL in PBS and diluted at 0.5 mg/mL in MEM without phenol red). The plates were gently shaken and incubated for 3 hours at 37° C. in a 5% CO2 incubator. The supernatant was removed and 100 μL of 100% DMSO was added. The plates were gently shaken to solubilize the formed formazan. The absorbance was measured using a multireader (Victor2 (Wallac)) at a wavelength of 570 nm.

CYP2D6 = biological target: T1, CYP2D6 (Homo sapiens, UniProt P10635); assay: CYP450 enzyme inhibition assay, CYP2D6; format: in vitro ADME; details: human liver microsomes; for IC50: dextromethorphan probe
T1 construct: containing Human Liver Microsomes (HLM) (0.5 mg/mL); from tissue; host or cells: human liver microsomes
Description: Protocol was based on literature [Perez-Del Palacio et al. (2017) Front Pharmacol 8, 202]. Assessment of CYP450 inhibition was conducted in 96-well plate format at 37° C. Test compounds were dissolved in DMSO/acetonitrile (2 μL) and diluted in 98 μL NADPH solution (2 mM). Reactions were started by addition of 100 μL potassium phosphate buffer (200 mM, pH 7.4) containing Human Liver Microsomes (HLM) (0.5 mg/mL). Probe reactions for CYP3A4, CYP2D6 and CYP2C9 were conducted with 50 μM testosterone, 22 μM dextromethorphan and 10 μM diclofenac for 15 min. Reactions were terminated with the addition of a quench solution (90 μL) of acetonitrile containing internal standards for LC-MS/MS determination (60 ppb cortisone, 100 ppb 4′-hydroxydiclofenac 13C6, 60 ppb levallorphan).

T1 sequence (P10635 whole entry): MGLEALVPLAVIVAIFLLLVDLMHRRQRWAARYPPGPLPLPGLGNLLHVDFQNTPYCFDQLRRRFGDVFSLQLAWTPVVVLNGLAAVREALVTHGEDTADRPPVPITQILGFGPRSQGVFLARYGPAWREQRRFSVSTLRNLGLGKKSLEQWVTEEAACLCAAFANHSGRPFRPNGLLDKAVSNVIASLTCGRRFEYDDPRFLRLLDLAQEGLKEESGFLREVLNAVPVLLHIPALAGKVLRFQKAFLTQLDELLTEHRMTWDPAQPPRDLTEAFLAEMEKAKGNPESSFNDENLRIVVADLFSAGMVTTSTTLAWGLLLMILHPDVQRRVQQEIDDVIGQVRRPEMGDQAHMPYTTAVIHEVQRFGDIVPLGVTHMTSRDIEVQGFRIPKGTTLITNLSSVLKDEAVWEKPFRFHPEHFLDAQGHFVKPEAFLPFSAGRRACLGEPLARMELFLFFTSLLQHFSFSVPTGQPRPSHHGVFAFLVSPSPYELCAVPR

| SMILES | mean seizure duration (NMRI mice; 40 mg/kg i.p.) | mice protected against induced seizures (NMRI mice; 40 mg/kg i.p.) | antiseizure activity (NMRI mice; 20 and 10 mg/kg i.p.) | Cytotoxicity SHSY5Y cells, effect (SHSY5Y cells) | IC50 (SHSY5Y cells) | CYP2D6, effect (CYP2D6) | IC50 (CYP2D6) | antiseizure activity (NMRI mice; 2.5 mg/kg i.p.) | mean seizure duration (NMRI mice; 10 mg/kg i.p.) | mice protected against induced seizures (NMRI mice; 10 mg/kg i.p.) |
| --- | --- | --- | --- | --- | --- | --- | --- | --- | --- | --- |
| CCc1ccc(C2=C(C)C(=O)C3(O2)C(=O)NC(OC)(C(=O)c2ccccc2)C3O)o1 (stereo not shown) [azaspirofuran A] | 24 s | 5 out of 7 | no significant effects | Weak | > 50 µM | Weak | 23.4 µM | – | – | – |
| CC/C=C\[C@H](O)[C@H](O)C1=C(C)C(=O)[C@]2(O1)C(=O)N[C@](OC)(C(=O)c1ccccc1)[C@H]2O [pseurotin A2] | 26 s | 4 out of 7 | – | Decrease | 17.9 µM | No effect | > 88 µM | inactive | 27 s | 5 out of 6 |
